Measured values published in paper PMC4295395, “An open label pilot study to evaluate the efficacy of Spanish black radish on the induction of phase I and phase II enzymes in healthy male subjects” (BMC Complementary and Alternative Medicine, 2014).

Tests used:
[1] = Urine acetaminophen and metabolite profile (HPLC) after 1000 mg acetaminophen, at week 0 and after 4 weeks of SBR supplementation; type: in vivo, human; details: for Urine concentration at time points, week 4 vs week 0 (in words): 0, 2, 4, 6, 8 h after 1000 mg acetaminophen, after 4 weeks SBR; for Increase of urine levels (AUC0-8h) from week 0 to week 4: after 4 weeks SBR supplementation, 1000 mg acetaminophen
Protocol: (§1) Participants returned to the clinic for their 8-hour in-clinic baseline visit (week 0) at which time their heart rate and blood pressure were measured and BMI calculated. […] Meals were provided after the pre-dose and 4-hour blood collection. After the 8-hour test period, participants received 3-day food records and paper diaries for recording their study product use, changes in concomitant therapies, and any side effects/changes in health conditions.
(§2) Participants returned to the clinic in a fasting state at 28 days post-baseline (week 4) for an 8-hour in-clinic test at which time heart rate and blood pressure were measured and BMI was calculated. […] Meals were provided after the pre-dose and the 4-hour blood collection. Subjects were required to consume the same meal items on each of the 8-hour test days.
At baseline and week 4, urine was collected in separate containers at 2 hour intervals between 0 and 8 hours, aliquoted into 1.0 mL volumes and stored below -40°C until HPLC analysis. Urine samples were prepared for HPLC analysis by adding 750 μl of Milli Q water to 250 μl of urine and vortexed. The preparation was centrifuged at 1800 g for 10 min and 20 μl of the preparation was injected into the HPLC system.
Paracetamol (5000 μg, A5000, Sigma-Aldrich), paracetamol glucuronide (5000 μg, A4438, Sigma-Aldrich), paracetamol sulfate (5000 μg, A161230, Toronto Research Chemical) or paracetamol mercapturate (5000 μg, A172100, Toronto Research Chemical) were added to 1 ml of a Milli Q water/methanol mixture (50:50 v/v). Serial dilutions of each stock solution were prepared in urine devoid of paracetamol (blank) to give the following concentrations: 2500 μg/ml, 1250 μg/ml, 625 μg/ml, 312.5 μg/ml, 156.25 μg/ml, 78.15 μg/ml, 39.0625 μg/ml, 19.531 μg/ml, 9.766 μg/ml and 4.883 μg/ml by serial dilution.
(§3) The chromatography system comprised of a Varian Solvent Delivery module 210, injector Varian Auto Sampler model 410, Varian 335 Photo Diode Array Detector for detection and MS workstation software 6.4.1 for data acquisition. Reverse phase isocratic HPLC analysis was performed with a C18 column with particle size 4 μm (4.6x150 mm). The flow rate was 0.65-0.75 ml/minute and the detection was at 240–245 nm. A 0.1 M sodium phosphate buffer containing acetonitrile at a ratio of 10:90 (v/v) was used as the mobile phase for plasma analysis. A 1 M sodium phosphate buffer containing acetonitrile at a ratio of 5:95 (v/v) was used as mobile phase for urine analysis.
(§4) Statistical comparisons of maximum concentrations (Cmax) and area under the concentration time curve (AUC) were performed on log transformed data. A paired t-test was used to compare pre- and post-treatment measurements of safety end points: biometrics, vital signs, hematology and blood clinical chemistry parameters. SAS Version 9.1 was used to perform the statistical analysis, with probability values ≤0.05 considered statistically significant.

[2] = Plasma acetaminophen and metabolite profile (HPLC) after 1000 mg acetaminophen, at week 0 and after 4 weeks of SBR supplementation; details: for Decrease of plasma AUC0-8h from week 0 to week 4: after 4 weeks SBR supplementation; for Decrease of plasma AUC0-8h from week 0 to week 4 / Plasma AUC(0–8 hour) / Plasma Tmax / Plasma Cmax / AUC(0-t) / Cmax / Tmax: 1000 mg acetaminophen; for Plasma Tmax, difference from week 0 to week 4: after 4 weeks SBR vs week 0, mean ± SD; for AUC(0-t) / Cmax / Tmax: male, human, plasma, oral, 1000 mg; for AUC(0-t): Plasma AUC(0–8 hour); for Cmax: Plasma Cmax; for Tmax: Plasma Tmax
Protocol: as §1, §2
The plasma was separated and aliquoted into 1.0 mL volume samples. These samples were stored below -40°C until high-performance […] chromatography (HPLC) analysis was performed. Plasma samples were prepared for HPLC analysis by adding 25 μl of 30% w/v aqueous perchloric acid (311413, Sigma-Aldrich, Toronto, Canada) to 250 μl of plasma in a 1.5 ml Eppendorf tube and then vortexed for 30 seconds and centrifuged at 1800 g for 10 min and 20 μl of clear supernatant was injected into the HPLC system.
Paracetamol (50 μg, A5000, Sigma-Aldrich, Toronto, Canada), paracetamol glucuronide (50 μg, A4438, Sigma-Aldrich, Toronto, Canada), or paracetamol sulfate (50 μg, A161230, Toronto Research Chemical Inc., Toronto, Canada) was added to 1 ml of Milli Q water/methanol mixture (50:50 v/v). NAPQI (50 μg, A170000, Toronto Research Chemical) was added to 1 ml acetonitrile. […] standard solutions were prepared in plasma devoid of paracetamol (blank) at the following concentrations: 25 μg/ml, 12.5 μg/ml, 6.25 μg/ml, 3.125 μg/ml, 1.56 μg/ml, 0.78 μg/ml and 0.39 μg/ml by serial dilution.
as §3, §4

[3] = after 4 weeks SBR vs week 0, mean ± SD
[4] = week 0 (before SBR), N=19, mean ± SD
[5] = week 0 (before SBR), healthy males N=19, mean ± SD
[6] = week 4 (after 4 weeks SBR), N=19, mean ± SD
[7] = week 4 (after 4 weeks SBR, 6 tablets daily), N=19, mean ± SD

Urine concentration at time points, week 4 vs week 0 (in words) [1]	Increase of urine levels (AUC0-8h) from week 0 to week 4 [1] [%]	Urine AUC(0–8 hour), difference from week 0 to week 4 [1, 3] [mg·h]	Urine Cmax, difference from week 0 to week 4 [1, 3] [mg]	Urine Tmax, difference from week 0 to week 4 [1, 3] [h]	AUC(0-t) [2, 4] [ng·h/mL]	AUC(0-t) [2, 6] [ng·h/mL]	Cmax [2, 5] [ng/mL]	Cmax [2, 7] [ng/mL]	Tmax [2, 4] [h]	Tmax [2, 6] [h]	Compound	Decrease of plasma AUC0-8h from week 0 to week 4 [2] [%]	Plasma Tmax, difference from week 0 to week 4 [2] [h]	Plasma AUC(0–8 hour) [2, 4] [µM·h]	Plasma Tmax [2, 4] [h]	Plasma Cmax [2, 5] [nM]	Plasma AUC(0–8 hour) [2, 6] [µM·h]	Plasma Tmax [2, 6] [h]	Plasma Cmax [2, 7] [nM]	Plasma concentration at time points, week 4 vs week 0 (in words) ([2]; 0, 2, 4, 6, 8 h after 1000 mg acetaminophen, after 4 weeks SBR)
higher at all time points	37	22.68 ± 44.43	4.82 ± 9.72	–	–	–	–	–	–	–	CC(=O)Nc1ccc(O)c(SCC(N)C(=O)O)c1 (centres unmarked) [Acetaminophen mercapturate]	–	–	–	–	–	–	–	–	–
–	–	–	–	–	–	–	–	–	–	–	CC(=O)Nc1ccc(O)c(SC[C@H](NC(=O)CC[C@H](N)C(=O)O)C(=O)NCC(=O)O)c1 [NAPQI-GSH]	9	-0.00 ± 0.02	0.72 ± 0.31	2.03 ± 0.01	180 ± 90	0.66 ± 0.22	2.02 ± 0.01	180 ± 40	–
no significant differences	1	-38.69 ± 342.45	19.57 ± 124.28	0.32 ± 1.67	58000 ± 14500	52800 ± 14100	12600 ± 4120	10800 ± 3090	2.13 ± 0.46	2.55 ± 1.13	CC(=O)Nc1ccc(O[C@@H]2O[C@H](C(=O)O)[C@@H](O)[C@H](O)[C@H]2O)cc1 [Acetaminophen glucuronide]	9	0.42 ± 1.26	–	–	–	–	–	–	decreased significantly at 2 h post-acetaminophen dose
